Laboratory results as given in ChEMBL document CHEMBL5236615, “Discovery of Novel N-Heterocyclic-Fused Deoxypodophyllotoxin Analogues as Tubulin Polymerization Inhibitors Targeting the Colchicine-Binding Site for Cancer Treatment” (J Med Chem, 2022).
In brackets after ≈: the same amount, converted by molar mass. Activity calls are given as the source filed them. The rule behind the calls is not given here.

How the values were obtained:
[1] = Toxicity in Balb/c mouse xenografted with human MCF7 cells assessed as pathological changes in kidney at 5 to 20 mg/kg, ip administered for every 2 days for 21 days by hematoxylin and eosin staining based analysis; assay type: organism-based; details: in vivo, 504 h, dose 5-20 mg/kg, time 21 day
[2] = biological target: T1, Tubulin (Homo sapiens) (UniProt P68371+Q9H4B7+P0DPH7+P68366+Q13509+Q71U36+P04350+Q3ZCM7+P07437+P68363+Q9BQE3+Q6PEY2+Q13885+Q9BVA1+Q9BUF5); assay: Inhibition of [3H]colchicine binding to tubulin (unknown origin) at 1 uM by competition scintillation proximity assay relative to control; assay type: protein-complex assay
[3] = test system: MCF7; assay: Induction of cell cycle arrest in human MCF7 cells assessed as mitosis by measuring accumulation of histone H3 ser10 phosphorylation incubated for 24 hrs by Western blotting analysis; assay type: functional, cell-based; details: dose 5-25 nM
[4] = test system: HT-29; assay: Antiproliferative activity against human HT-29 cells measured after 72 hrs by MTT assay; assay type: functional, cell-based; details: HT-29, 72 h
[5] = test system: MCF7; assay: Induction of cell cycle arrest in human MCF7 cells assessed as accumulation of cells at G2/M phase at 10 nM measured after 24 hrs by flow cytometry relative to control; assay type: functional
[6] = test system: HUVEC; assay: Inhibition of angiogenesis in HUVEC cells assessed as reduction in capillary tube formation after 6 hrs by phase contrast microscopy; assay type: functional, cell-based; details: Homo sapiens, dose 1.25-5 nM
[7] = Metabolic stability in human liver microsomes assessed as half life at 1 uM by LC/MS analysis; assay type: ADME, Microsome
[8] = test system: MCF7; assay: Induction of ROS generation in human MCF7 cells assessed as increase in intracellular ROS level measured after 12 hrs by DCFH-DA staining based assay; assay type: functional, cell-based; details: dose 5-20 nM
[9] = test system: MCF7; assay: Induction of cell cycle arrest in human MCF7 cells assessed as mitosis by measuring accumulation of histone H3 ser10 phosphorylation incubated for 24 hrs by immunofluorescence assay; assay type: functional, cell-based; details: dose 5-25 nM
[10] = test system: MCF7; assay: Induction of apoptosis in human MCF7 cells assessed as upregulation of cleaved Caspase 3 at 5 to 20 nM measured after 24 hrs by Western blot analysis; assay type: functional, cell-based; details: dose 5-20 nM
[11] = test system: MCF7; assay: Induction of apoptosis in human MCF7 cells assessed as upregulation of p-Bim L protein expression at 5 to 20 nM measured after 24 hrs by Western blot analysis; assay type: functional, cell-based; details: dose 5-20 nM
[12] = biological target: Tubulin (Sus scrofa, UniProt P02554+P02550); assay: Inhibition of porcine brain tubulin assessed as changes in the fluorescence intensity measured for 60 mins by cell free tubulin polymerization assay
[13] = Antiproliferative activity against paclitaxel-resistant human A549/TxR cells measured after 72 hrs by MTT assay; assay type: functional, cell-based
[14] = Toxicity in Balb/c mouse xenografted with human MCF7 cells assessed as body weight loss at 5 to 20 mg/kg, ip administered for every 2 days for 21 days; assay type: organism-based; details: in vivo, 48 h, dose 5-20 mg/kg, time 2 day
[15] = test system: MCF7; assay: Induction of cell cycle arrest in human MCF7 cells assessed as accumulation of cells at G2/M phase at 5 nM measured after 24 hrs by flow cytometry relative to control; assay type: functional
[16] = test system: MCF7; assay: Induction of mitochondria transmembrane potential loss in human MCF7 cells measured after 12 hrs by JC1 dye based assay; assay type: functional; details: dose 5-20 nM
[17] = biological target: T1, Tubulin (Homo sapiens); assay: Inhibition of [3H]colchicine binding to tubulin (unknown origin) at 5 uM by competition scintillation proximity assay relative to control; assay type: protein-complex assay
[18] = test system: A549/TxR; assay: Inhibition of colony formation of paclitaxel-resistant human A549/TxR cells at 20 nM measured after 24 hrs by crystal violet based assay; assay type: functional, cell-based
[19] = test system: HCT-116; assay: Antiproliferative activity against human HCT-116 cells measured after 72 hrs by MTT assay; assay type: functional, cell-based; details: HCT-116, 72 h
[20] = test system: K562; assay: cells; details: Homo sapiens, K562, 72 h
Description: Antiproliferative activity against human K562 cells measured after 72 hrs by MTT assay

[21] = Metabolic stability in human liver microsomes assessed as intrinsic clearance at 1 uM by LC/MS analysis; assay type: ADME, Microsome; details: read-out: CLH
[22] = test system: A549; assay: Antimigratory activity against human A549 cells assessed as inhibition of cell migration measured after 24 hrs by crystal violet staining based transwell migration assay; assay type: functional; details: dose 1.25-5 nM
[23] = biological target: ATP-dependent translocase ABCB1 (Homo sapiens, UniProt P08183); assay: Substrate activity at P-glycoprotein in paclitaxel-resistant human MCF/TxR cells assessed as intracellular Rhodamine-123 content at 10 uM incubated for 12 hrs by confocal microscopy; assay type: cell-based; details: mcf7/txr
[24] = test system: MCF7; assay: Induction of apoptosis in human MCF7 cells assessed as upregulation of BaX protein expression at 5 to 20 nM measured after 24 hrs by Western blot analysis; assay type: functional, cell-based; details: dose 5-20 nM
[25] = test system: MCF7; assay: Induction of cell cycle arrest in human MCF7 cells assessed as accumulation of cells at G2/M phase at 20 nM measured after 24 hrs by flow cytometry relative to control; assay type: functional
[26] = Aqueous solubility in pH 7.4 PBS buffer by HPLC-UV analysis; assay type: physicochemical
[27] = Toxicity in Balb/c mouse xenografted with human MCF7 cells assessed as pathological changes in lung at 5 to 20 mg/kg, ip administered for every 2 days for 21 days by hematoxylin and eosin staining based analysis; assay type: organism-based; details: in vivo, 504 h, dose 5-20 mg/kg, time 21 day
[28] = test system: MCF7; assay: Induction of apoptosis in human MCF7 cells assessed as upregulation of cleaved Caspase 9 at 5 to 20 nM measured after 24 hrs by Western blot analysis; assay type: functional, cell-based; details: dose 5-20 nM
[29] = test system: MCF7; assay: Induction of cell cycle arrest in human MCF7 cells assessed as arrest in G2/M phase by measuring accumulation of cyclin B1 at 5 to 25 nM incubated for 24 hrs by Western blotting analysis; assay type: functional, cell-based; details: dose 5-25 nM
[30] = test system: MCF7; assay: Induction of cell cycle arrest in human MCF7 cells assessed as upregulation of Bcl2 phosphorylation at […] at 5 to 20 nM measured after 24 hrs by Western blot analysis; assay type: functional, cell-based; details: dose 5-20 nM
[31] = test system: HUVEC; assay: Inhibition of angiogenesis in HUVEC cells assessed as broken tubular network at 5 nM after 6 hrs by phase contrast microscopy; assay type: functional, cell-based; details: Homo sapiens
[32] = test system: MCF7; assay: Induction of cell cycle arrest in human MCF7 cells assessed as cdc25c activation at 5 to 25 nM incubated for 24 hrs by Western blotting analysis; assay type: functional, cell-based; details: dose 5-25 nM
[33] = test system: MCF7; assay: Antitumor activity against human MCF7 cells xenografted in Balb/c mouse assessed as tumor growth inhibition at 10 mg/kg, ip administered for every 2 days for 21 days; assay type: functional; details: MCF7, 504 h, time 21 day, read-out: TGI
[34] = test system: MCF7; assay: Antitumor activity against human MCF7 cells xenografted in Balb/c mouse assessed as tumor growth inhibition at 20 mg/kg, ip administered for every 2 days for 21 days; assay type: functional; details: MCF7, 504 h, time 21 day, read-out: TGI
[35] = test system: A549/TxR; assay: Induction of apoptosis in paclitaxel-resistant human A549/TxR cells incubated for 24 hrs by annexinV/PI assay; assay type: functional, cell-based; details: dose 5-20 nM
[36] = test system: MCF7; assay: Induction of cell cycle arrest in human MCF7 cells assessed as arrest in G2/M phase by measuring accumulation of p21 at 5 to 25 nM incubated for 24 hrs by Western blotting analysis; assay type: functional, cell-based; details: dose 5-25 nM
[37] = test system: MCF7; assay: Induction of cell cycle arrest in human MCF7 cells assessed as arrest in G2/M phase by measuring accumulation of CDK7 at 5 to 25 nM incubated for 24 hrs by Western blotting analysis; assay type: functional, cell-based; details: dose 5-25 nM
[38] = Acute toxicity in ICR mouse; details: in vivo

ATP-dependent translocase ABCB1, sequence (P08183 whole entry): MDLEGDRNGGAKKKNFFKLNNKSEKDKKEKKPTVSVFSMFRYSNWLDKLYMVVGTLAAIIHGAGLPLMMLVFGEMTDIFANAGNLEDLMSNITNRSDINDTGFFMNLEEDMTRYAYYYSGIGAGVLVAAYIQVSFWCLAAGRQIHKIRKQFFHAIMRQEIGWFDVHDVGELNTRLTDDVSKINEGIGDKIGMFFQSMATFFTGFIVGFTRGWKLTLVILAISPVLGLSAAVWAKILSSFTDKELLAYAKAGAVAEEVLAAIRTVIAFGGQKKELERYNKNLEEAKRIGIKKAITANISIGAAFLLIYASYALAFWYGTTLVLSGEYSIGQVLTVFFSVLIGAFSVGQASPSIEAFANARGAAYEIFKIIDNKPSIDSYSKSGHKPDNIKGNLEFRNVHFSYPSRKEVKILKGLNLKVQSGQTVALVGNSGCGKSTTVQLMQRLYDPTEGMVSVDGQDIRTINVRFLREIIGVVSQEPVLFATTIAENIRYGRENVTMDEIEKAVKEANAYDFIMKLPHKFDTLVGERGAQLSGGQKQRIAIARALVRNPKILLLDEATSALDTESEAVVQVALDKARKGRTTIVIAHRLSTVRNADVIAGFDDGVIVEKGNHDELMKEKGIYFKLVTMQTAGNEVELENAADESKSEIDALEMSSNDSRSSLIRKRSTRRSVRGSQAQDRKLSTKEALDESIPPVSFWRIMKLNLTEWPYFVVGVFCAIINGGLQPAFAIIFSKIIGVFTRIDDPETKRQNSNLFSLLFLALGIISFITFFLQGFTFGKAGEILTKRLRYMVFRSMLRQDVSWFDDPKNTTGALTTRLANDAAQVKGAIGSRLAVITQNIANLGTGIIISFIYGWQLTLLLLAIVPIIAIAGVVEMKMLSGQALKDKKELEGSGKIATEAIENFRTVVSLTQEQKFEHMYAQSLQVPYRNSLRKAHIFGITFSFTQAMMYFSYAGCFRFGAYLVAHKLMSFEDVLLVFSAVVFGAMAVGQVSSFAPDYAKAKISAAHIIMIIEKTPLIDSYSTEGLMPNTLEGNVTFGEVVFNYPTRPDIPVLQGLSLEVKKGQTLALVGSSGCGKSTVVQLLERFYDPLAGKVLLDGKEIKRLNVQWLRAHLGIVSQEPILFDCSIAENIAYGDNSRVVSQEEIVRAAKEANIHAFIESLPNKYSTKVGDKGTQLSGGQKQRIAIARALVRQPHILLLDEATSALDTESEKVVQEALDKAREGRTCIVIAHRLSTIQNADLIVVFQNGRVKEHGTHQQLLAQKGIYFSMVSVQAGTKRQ

Structure (SMILES) | Activity [1] | inhibition [2] | Activity [3] | IC50 [4] | Activity [5] | Activity [6] | half-life at 1 µM [7] | Activity [8] | Activity [9] | Activity [10] | Activity [11] | IC50 [12] | IC50 [13] | Activity [14] | Activity [15] | Activity [16] | inhibition [17] | inhibition [18] | IC50 [19] | IC50 [20] | also measured
COc1c(Cl)cc([C@@H]2c3cc4c(cc3C[C@H]3C(=O)NC(=O)N23)OCCO4)cc1Cl | Non-Toxic | 71.5% | Dose-Dependent Effect | 8.3 nM | 16% | Dose-Dependent Effect | 26.1 min | Dose-Dependent Effect | Dose-Dependent Effect | Active | Active | 2.52 µM | 5.2 nM | Non-Toxic | 16% | Dose-Dependent Effect | 88.7% | Active | 8.7 nM | 6.3 nM | CLint scaled at 1 µM [21]: 66.7 mL/min/kg; Activity [22]: Dose-Dependent Effect; Activity [23]: Not Active; Activity [24]: Active; Activity [25]: 16%; solubility [26]: 2.85 µg/mL (≈ 6.55 µM); Activity [27]: Non-Toxic; Activity [28]: Active; Activity [29]: Active; Activity [30]: Active; Activity [31]: Dose-Dependent Effect; Activity [32]: Active; inhibition in vivo at 10 mg/kg [33]: 85.1%; inhibition in vivo at 20 mg/kg [34]: 85.1%; inhibition [35]: Dose-Dependent Effect; Activity [36]: Active; Activity [37]: Active; LD50 [38]: 211 mg/kg
COc1c(Br)cc([C@@H]2c3cc4c(cc3C[C@H]3C(=O)NC(=O)N23)OCCO4)cc1Br | Non-Toxic | 69.7% | Dose-Dependent Effect | 4.4 nM | 16% | Dose-Dependent Effect | 10.4 min | Dose-Dependent Effect | Dose-Dependent Effect | Active | Active | 2.31 µM | 7.9 nM | Non-Toxic | 16% | Dose-Dependent Effect | 84.6% | Active | 5.9 nM | 5.3 nM | CLint scaled at 1 µM [21]: 167 mL/min/kg; Activity [22]: Dose-Dependent Effect; Activity [23]: Not Active; Activity [24]: Active; Activity [25]: 16%; solubility [26]: < 0.5 µg/mL; Activity [27]: Non-Toxic; Activity [28]: Active; Activity [29]: Active; Activity [30]: Active; Activity [31]: Dose-Dependent Effect; Activity [32]: Active; inhibition in vivo at 10 mg/kg [33]: 73.2%; inhibition in vivo at 20 mg/kg [34]: 78.9%; inhibition [35]: Dose-Dependent Effect; Activity [36]: Active; Activity [37]: Active; LD50 [38]: 86.2 mg/kg
